Reference: patent US20130089505A1, “SINGLE VIAL FORMULATION FOR MEDICAL GRADE CYANOACRYLATE” (priority 2007, published 2013)

Experiment: Viscosity of cyanoacrylate monomer, oligomer and formulation
Format: physicochemical
Conditions: monomer free of 4-methoxyphenol and SO2
From the text: In one embodiment, an alkyl cyanoacrylate monomer can be treated to form an alkyl cyanoacrylate oligomer with viscosity greater than the alkyl cyanoacrylate monomer. For example, an n-hexyl cyanoacrylate monomer can be treated to form an n-hexyl cyanoacrylate oligomer. Preferred oligomers result from photochemical treatment of an alkyl cyanoacrylate monomer, to produce a mixture that includes partially polymerized cyanoacrylate and that has a higher viscosity than the alkyl cyanoacrylate monomer from which it is formed. For example, the viscosity of the alkyl cyanoacrylate oligomer can advantageously be from about 10 centipoise to about 1000 centipoise and the viscosity of the alkyl cyanoacrylate monomer, from which the alkyl cyanoacrylate oligomer is formed, can be from about 2 centipoise to about 5 centipoise as measured by a rheometer. Typically, the oligomer will have a viscosity of from about 10 centipoise to about 50 centipoise.
The purified n-hexyl cyanoacrylate monomer from Example 1, containing 4-methoxyphenol, was treated with Aldrich HQ & MEHQ inhibitor remover, Sigma-Aldrich, Inc., St. Louis, Mo., USA (2005-2006 Catalog #306320), to remove the p-methoxyphenol, followed by bubbling argon through the n-hexyl cyanoacrylate monomer to remove SO2. The viscosity of the purified n-hexyl cyanoacrylate, free of 4-methoxyphenol and SO2, was ˜4 centipoise. […]

viscosity: ~4 centipoise
Substance: n-hexyl cyanoacrylate
